# In patent US20080226648A1, “Methods for Treating Stress and Affecting Biological Immune Systems” (priority 2004, published 2008):
# Structures can show the parent of a compound that is named as a salt.
# Experiments:
# Assay type in all cases: in vivo
# IL-2 [1] = assay: Serum IL-2 concentration (RIA) in goats pre- and post-operation
# Method: (§1) An experiment was conducted on sixteen castrated adult goats, which were randomly divided into control group (n=8) and treatment group (TG, n=8); housed separately; and fed with the same nutrient level. The TG was treated orally with a cysteamine compound (the cysteamine compound is preferably cysteamine hydrochloride, where a dose of 45 mg/kg of body weight was administered, with 30% of the 45 mg/kg dosage comprising the cysteamine compound) provided by Shanghai Walcom Bio-Chem Ltd). Both groups were subjected to rumen operation and duodenum operation.
# (§2) This experiment was conducted in four phases: (a) Roughage phase pre-operation: from day 18 to day 14 before the operation, both groups of goats were fed with roughage (dried peanut stalk) and water; (b) Concentrate phase pre-operation: day 13 to day 1 before the operation (in total 13 days), both groups were fed with roughage and concentrate (50 g/head), and the TG was also treated with a cysteamine compound (using dosages described above) at the same time; (c) Rumen operation phase: after completion of the concentrate phase pre-operation, the rumen operation was performed to affix a fistula on the rumen, which was followed by 18 days of recovery; (d) Duodenum operation phase: 18 days after the rumen operation, a second operation was performed to affix a fistula on the duodenum, following which the goats were allowed to have 17 days of recovery to complete this experiment. The feeding diet during the operation was same as that of concentrate phase per-operation.
# (§3) While conducting the experiment, blood samples were periodically collected. In general, blood was collected via the neck vein before morning feeding. Part of the blood from each sample was stored in tubes containing heparin for anti-coagulation. The remaining part of each blood sample was centrifuged and then stored the serum at −20° C. Blood samples were collected at the following times: (a) Day 4 of the Roughage phase pre-operation; (b) Day 13 of the Concentrate phase (one day before the operation, B1); (c) 10 days after the 1st operation (rumen operation); and (d) 6 days and 17 days after the 2nd operation (duodenum operation).
# (§4) Serum IL-2, cortisol concentration and lymphatic transformation testing were also performed during the experiment. […] To perform lymphatic cells transformation test, the blood samples from both groups were treated as follows: 3 tubes/sample, with blood sample 100 ul/tube for PHA− (PHA−: without PHA) and 3 tubes/sample for PHA+(PHA+: each tube added with 50 ul PHA diluted solution); cells in both PHA− and PHA+ were cultured for total 72 hours. After 48 hours of cell culture, 1 uL ^3H-TdR was added to each tube with and mixed with cells and incubated further for 24 hours. At the completion of the culturing process, the cells were lysed. The lysate from both PHA− and PHA+ tubes were transferred to scintillation bottles, dried at 80° C., then added with 5 ml scintillation solution. The solutions were stored overnight and tested for cpm. SI index implies the rate of lymphatic cells transformation induced by lectin, SI=cpm(PHA+)/cpm(PHA−).
# (§5) IL-2 and cortisol testing kits were used. To prepare RPMI-1640 cell culture medium, RPMI-1640 powder was added with distillated water and filtered, and 20% Fetal Bovine Serum, Penicillin (100 U/ml) as well as Streptomycin (100 U/ml) was added. 2 ml culture medium solution was then added to each tube. In addition, diluted PHA, [Methy-^3H] Thymidine with radioactivity 1 mci/m, and Scintillation solution: PPO (2,5, Diphenyloxazole,) 5 g POPOP(1,4bis [5-phenyloxazolyl] benzene) 0.3 g Dimethyl benzene: 800 mL; 100% ethanol: 200 ml were added to each tube.
# All data from the experiment (see Table 1) were expressed in mean±SE and analyzed by Excel software for t-test analysis, where P<0.05 implies significant difference, and 0.05<P<0.15 implies changes. The symbol “§” in Table 1 denotes TG treated with Cysteamine. […]
# lymphatic cells = assay: Lymphatic cells transformation test (PHA, 3H-TdR, SI) on blood of goats pre- and post-operation
# Method: as §1, §2
# While conducting the experiment, blood samples were periodically collected. In general, blood was collected via the neck vein before morning feeding. Part of the blood from each sample was stored in tubes containing heparin for anti-coagulation. […]
# IL-2 and cortisol testing kits were used. […] Thymidine with radioactivity 1 mci/m, and Scintillation solution: PPO (2,5, Diphenyloxazole,) 5 g POPOP(1,4bis [5-phenyloxazolyl] benzene) 0.3 g Dimethyl benzene: 800 mL; 100% ethanol: 200 ml were added to each tube.
# cortisol = assay: Serum cortisol concentration (RIA) in goats pre- and post-operation
# Method: as §1, §2, §3, §4, §5
# Cortisol concentrations of the two groups before the operation were substantially similar (20.51±4.1 for the control group versus 20.32±4.0 ug 1^−1 for the TG). Changes in cortisol concentration levels in the TG before and after the 1st operation were slight. […]
# Male C57BL/6N mice [2] = assay: Relative weights of spleen and thymus to body weight in mice; settings: 30 days
# From the text: Male C57BL/6N mice were used in Example 2, 28 mice in total. The 28 mice were used for pretest for 7 days before the treatment began. Two groups of 14 mice were then created. […] Each group contained […]. The treatment period was for 30 days. Lymphocyte transformation rate in plasma, white blood cell (WBC) count, natural killer cell activity, Plasma IL-2 (Kit provided by Jinginei Biotech) and IL-6 (Kit provided by Bender MedSystems) measurements, and antibody forming, cell count were performed according to methods known to the skilled artisan (see “Medical Immunology Experiment,” Publisher: People Hygiene, Published in 1999 in China, Editor: Xi Chuan Ping). Five days before the end of the treatment, 12 mice from each group (each replicate for 2 mice) were immunized with 0.5 ml of 2% sheep RBC (equivalent to −2×10^8 cells per ml) for testing spleen B-cells. The relative weights of spleen and thymus to body weight (mg/100 g BW) were also measured. All statistical analyses were performed on ANOVA. After conducting all tests and analyses, the relative weight of certain immune organs, namely the thymus and spleen, were measured, as illustrated in Table 4.
# Male C57BL/6N mice [3] = assay: White blood cell (WBC) count in mice; settings: 30 days
# From the text: (§6) Male C57BL/6N mice were used in Example 2, 28 mice in total. The 28 mice were used for pretest for 7 days before the treatment began. Two groups of 14 mice were then created. […] Each group contained six replicates and each replicate contained 8 mice. The treatment period was for 30 days.
# (§7) Lymphocyte transformation rate in plasma, white blood cell (WBC) count, natural killer cell activity, Plasma IL-2 (Kit provided by Jinginei Biotech) and IL-6 (Kit provided by Bender MedSystems) measurements, and antibody forming, cell count were performed according to methods known to the skilled artisan (see “Medical Immunology Experiment,” Publisher: People Hygiene, Published in 1999 in China, Editor: Xi Chuan Ping). Five days before the end of the treatment, 12 mice from each group (each replicate for 2 mice) were immunized with 0.5 ml of 2% sheep RBC (equivalent to −2×10^8 cells per ml) for testing spleen B-cells. The relative weights of spleen and thymus to body weight (mg/100 g BW) were also measured. All statistical analyses were performed on ANOVA.
# (§8) The WBC count, lymphocyte transformation rate (specifically in the spleen), antibody forming cell, and natural killer cell killing rate (based on the killing rate of K562 cells by natural killer cell) were measured and analyzed, as illustrated in Tables 4and5.
# lymphocyte = assay: Lymphocyte transformation rate (SI value, PHA) in mice; settings: 30 days
# From the text: Male C57BL/6N mice were used in Example 2, 28 mice in total. The 28 mice were used for pretest for 7 days before the treatment began. Two groups of 14 mice were then created. […] Each group contained six replicates and each replicate contained 8 mice. The treatment period was for 30 days. Lymphocyte transformation rate in plasma, white blood cell (WBC) count, natural killer cell activity, Plasma IL-2 (Kit provided by Jinginei Biotech) and IL-6 (Kit provided by Bender MedSystems) measurements, and antibody forming, cell count were performed according to methods known to the skilled artisan (see “Medical Immunology Experiment,” Publisher: People Hygiene, Published in 1999 in China, Editor: Xi Chuan Ping). Five days before the end of the treatment, 12 mice from each group (each replicate for 2 mice) were immunized with 0.5 ml of 2% sheep RBC (equivalent to −2×10^8 cells per ml) for testing spleen B-cells. The relative weights of spleen and thymus to body weight (mg/100 g BW) were also measured. All statistical analyses were performed on ANOVA. The WBC count, lymphocyte transformation rate (specifically in the spleen), antibody forming cell, and natural killer cell killing rate (based on the killing rate of K562 cells by natural killer cell) were measured and analyzed, as illustrated in Tables 4and5. […]
# spleen B-cells = assay: Antibody forming cell count (spleen B-cells after sheep RBC immunization) in mice; settings: 30 days, immunized with sheep RBC
# From the text: as §6, §7, §8
# K562 cells = assay: Natural killer cell killing rate in mice; settings: 30 days, killing of K562 cells
# From the text: as §6, §7, §8
# IL-2 [4] = assay: Plasma IL-2 measurement in mice; settings: 30 days
# From the text: (§9) Male C57BL/6N mice were used in Example 2, 28 mice in total. The 28 mice were used for pretest for 7 days before the treatment began. Two groups of 14 mice were then created. […] Each group contained six replicates and each replicate contained 8 mice. The treatment period was for 30 days. Lymphocyte transformation rate in plasma, white blood cell (WBC) count, natural killer cell activity, Plasma IL-2 (Kit provided by Jinginei Biotech) and IL-6 (Kit provided by Bender MedSystems) measurements, and antibody forming, cell count were performed according to methods known to the skilled artisan (see “Medical Immunology Experiment,” Publisher: People Hygiene, Published in 1999 in China, Editor: Xi Chuan Ping). Five days before the end of the treatment, 12 mice from each group (each replicate for 2 mice) were immunized with 0.5 ml of 2% sheep RBC (equivalent to −2×10^8 cells per ml) for testing spleen B-cells. The relative weights of spleen and thymus to body weight (mg/100 g BW) were also measured. All statistical analyses were performed on ANOVA.
# IL-6 = assay: Plasma IL-6 measurement in mice; settings: 30 days
# From the text: as §9
structure (smiles),measurement,setting,value
"NCCS [Cysteamine hydrochloride, cysteamine hydrochloride]",difference in IL-2 concentration levels between the two groups,IL-2 [1]; after 17 days from the 2nd operation,had disappeared
same,TG IL-2 concentration levels higher than the control group,"IL-2 [1]; after the first operation (Day 10 after 1st, Day 6 after 2nd operation), P<0.05",90-100%
same,"IL-2 concentration in TG, pre- versus post-operation",IL-2 [1]; treatment group,no significant difference between pre- and post-operation
same,IL-2 serum concentration,"IL-2 [1]; treatment group n=8, oral 45 mg/kg BW (30% cysteamine compound), pre-operation Concentrate phase, listed as Cysteamine, hydrochloride, 45 mg/kg",0.97 ± 0.15 µg/L
same,IL-2 serum concentration,"IL-2 [1]; treatment group n=8, oral 45 mg/kg BW (30% cysteamine compound), pre-operation Concentrate phase, listed as cysteamine compound, hydrochloride, 45 mg/kg",0.97 ± 0.15 µg/L
same,IL-2 serum concentration,"IL-2 [1]; treatment group, oral 45 mg/kg BW, after 1st (rumen) operation, Day 10, listed as Cysteamine, hydrochloride, 45 mg/kg",1.32 ± 0.10 ^A ug/l
same,IL-2 serum concentration,"IL-2 [1]; treatment group, oral 45 mg/kg BW, after 1st (rumen) operation, Day 10, listed as cysteamine compound, hydrochloride, 45 mg/kg",1.32 ± 0.10 µg/L
same,IL-2 serum concentration,"IL-2 [1]; treatment group, oral 45 mg/kg BW, after 2nd (duodenum) operation, Day 6, listed as Cysteamine, hydrochloride, 45 mg/kg",0.95 ± 0.06 ^B ug/l
same,IL-2 serum concentration,"IL-2 [1]; treatment group, oral 45 mg/kg BW, after 2nd (duodenum) operation, Day 6, listed as cysteamine compound, hydrochloride, 45 mg/kg",0.95 ± 0.06 µg/L
same,IL-2 serum concentration,"IL-2 [1]; treatment group, oral 45 mg/kg BW, after 2nd (duodenum) operation, Day 17",1.02 ± 0.08 µg/L
same,degree of decrease in lymphatic cells transformation rate caused by surgical operations,"lymphatic cells; TG versus control group, P<0.05",significantly smaller than that of the control group
same,rate of TG lymphatic cell transformation increased compared to the rate of the control group,"lymphatic cells; six days after the 2nd/duodenum operation, P<0.05",3.5 fold
same,lymphatic cells transformation rate (SI),"lymphatic cells; treatment group, oral 45 mg/kg BW, Concentrate phase pre-operation, P=0.14 vs control",132.4±20.3
same,cortisol concentration before the operation,"cortisol; TG, before the operation",20.32±4.0 ug 1^−1
same,changes in cortisol concentration levels in the TG before and after the 1st operation,cortisol; treatment group,slight
same,cortisol serum concentration,"cortisol; treatment group n=8, oral 45 mg/kg BW, pre-operation Concentrate phase",20.3 ± 4.0 µg/L
same,cortisol serum concentration,"cortisol; treatment group, after 1st operation, Day 10",20.9 ± 3.7 µg/L
same,cortisol serum concentration,"cortisol; treatment group, after 2nd operation, Day 6",21.2 ± 5.2 µg/L
same,cortisol serum concentration,"cortisol; treatment group, after 2nd operation, Day 17",20.7 ± 5.8 µg/L
same,Spleen weight,Male C57BL/6N mice [2]; Treatment 1: 40 mg/kg BW oral,298 ± 5.03 mg/100 g of body weight
same,Thymus weight,Male C57BL/6N mice [2]; Treatment 1: 40 mg/kg BW oral,549 ± 1.89 ^B mg/100 g of body weight
same,Spleen weight,Male C57BL/6N mice [2]; Treatment 2: 80 mg/kg BW oral,296 ± 7.50 mg/100 g of body weight
same,Thymus weight,Male C57BL/6N mice [2]; Treatment 2: 80 mg/kg BW oral,567 ± 7.18 ^A mg/100 g of body weight
same,WBC Count,Male C57BL/6N mice [3]; Treatment 1: 40 mg/kg BW oral,7.12 ± 0.65 10^9/L
same,WBC Count,Male C57BL/6N mice [3]; Treatment 2: 80 mg/kg BW oral,7.53 ± 0.55 10^9/L
same,"Lymphocyte Transformation (SI Value, Stimulation Index)",lymphocyte; Treatment 1: 40 mg/kg BW oral,1.15 ± 0.02 ^B
same,"Lymphocyte Transformation (SI Value, Stimulation Index)",lymphocyte; Treatment 2: 80 mg/kg BW oral,1.24 ± 0.05 ^A
same,"Antibody Forming Cell (OD, Optical Density)",spleen B-cells; Treatment 1: 40 mg/kg BW oral,1.48 ± 0.19 ^A OD
same,"Antibody Forming Cell (OD, Optical Density)",spleen B-cells; Treatment 2: 80 mg/kg BW oral,0.91 ± 0.51 ^C OD
same,NK Killing Rate,K562 cells; Treatment 1: 40 mg/kg BW oral,92.19 ± 2.20%
same,NK Killing Rate,K562 cells; Treatment 2: 80 mg/kg BW oral,93.60 ± 2.21%
same,Plasma IL-2,IL-2 [4]; Treatment 1: 40 mg/kg BW oral,5.88 ± 0.53 pg/mL
same,Plasma IL-2,IL-2 [4]; Treatment 2: 80 mg/kg BW oral,5.76 ± 0.50 pg/mL
same,Plasma IL-6,IL-6; Treatment 1: 40 mg/kg BW oral,226.20 ± 37.93 pg/mL
same,Plasma IL-6,IL-6; Treatment 2: 80 mg/kg BW oral,247.00 ± 51.76 pg/mL
